Source: patent publication US8999408B2, “Amla extract for transdermal application” (priority 2006, dated 2015)

Key:
[1] = Transdermal diffusion of Vitamin C / reductones across guinea pig abdominal skin in a diffusion cell; type: in vitro ADME; conditions: for Reductones transported across the guinea pig membrane: 3 hours, 37° C., phosphate buffer pH 7; for Fraction trans-dermal percent: 10 mg applied, after 3 hours, relative to reductone equivalent present in application
Description: The diffusion studies were carried out across the guinea pig abdominal skin. […] The guinea pig abdominal skin was placed between the upper and lower chambers of the diffusion cell, thereby separating the 2 chambers. The test composition was introduced into the upper chamber. Migration of the components from the upper chamber to the lower chamber (which had liquid or buffer at body pH) through the guinea pig abdominal skin allowed comparative studies for extent of migration of the components from different test compositions.
After introducing the test material in the upper chamber, the diffusion was carried out for 3 hours.
The lower chamber of the diffusion cells were filled with 15 ml of phosphate buffer, pH 7, and the prepared guinea pig skins were fixed on each diffusion cell between the upper and lower chambers of the diffusion cell. The temperature of the diffusion cell was maintained at 37° C.
The diffusion across the skin membrane of active ingredients, that is, scorbutic reductones (that is Vitamin C actives substances including ascorbic acid) and hydrogen ions was carried out for three hours.
To an aliquot (5 ml) of supernatant of the HPO3 extract 2.5 ml of acetone was added and the resulting solution was titrated with dye 2,6-dichloro indophenol until a faint pink color persisted for 15 seconds. The concentration of Vitamin C in the sample was expressed as mg ascorbic acid equivalent to 1 ml of the dye solution.

[2] = Radical scavenging by the DPPH (diphenylpicryl-hydrazyl) method; conditions: 10 mg dose

With O=C1O[C@H]([C@@H](O)CO)C(O)=C1O [ascorbic acid] the “Reductones transported across the guinea pig membrane” value ([1]; 10 mg applied on guinea pig membrane) was 0.3 mg, the Fraction trans-dermal percent [1] was 3.0% and the Fraction trans-dermal percent ([1]; listed as Vitamin C) was 3%. The “Reductones transported across the guinea pig membrane” value ([1]; 100 mg applied on guinea pig membrane) was 8.4 mg and the “inhibition (DPPH radical scavenging)” value [2] was −4.66%.
